# Entries after “also recorded” stand apart in the source; their conditions may differ.
# What was measured:
# Taenia pisiformis = experiment: Treatment of Taenia pisiformis in dogs (experimental infection, single oral dose); format: in vivo, dogs (beagles)
# Procedure: Fifteen beagles (8 male and 7 female), ranging in age from 8 to 30 months, were individually housed in stainless-steel cages and fed with commercial dog food. Water was provided ad libitum. After 2 weeks acclimatization, each dog was exposed to infection by administering orally 14-20 cysts containing Taenia pisiformis strobilocerci obtained 24 hours before from wild rabbits. Vitality of the cysts was verified by evagination in bile of the dog.
# Seven dogs (Group 1) were given the drug 6 weeks after infection with Taenia pisiformis, and the other 8 dogs (Group 2) were given the drug 8 weeks after infection.
# (§1) Food and water intake, faecel consistency, vomiting, general appearance and behavior were recorded hourly during the day of treatment and twice daily thereafter.
# The tapeworms that were found were then removed, counted and examined for scolices.
# The emission time of the faeces for each dog was recorded during the day, when possible.
# Nineteen days after treatment for Group 1, and 4 days after treatment for Group 2, the dogs were killed and the small intestines were examined in order to reveal the presence of Taenia spp. This 19-day waiting period for Group 1 allowed time for any viable scolices to redevelop, thus making them more easily visible at necropsy.
# The intestines and intestinal contents from the pyloric portion of the stomach through the rectum were thoroughly examined for parasites.
# Dypilidium caninum = experiment: Treatment of Dypilidium caninum in dogs (natural infection); format: in vivo; conditions: 100 mg/kg, tablets containing 0.5 gram, necropsy 21 days after treatment
# Excerpt: In general, the testing procedure was substantially the same as in Example 1 except necropsy 21 days after treatment. The treatment was 100% effective.
# Echinococus granulosus = experiment: Treatment of Echinococus granulosus in dogs (experimental infection); format: in vivo; conditions: 200 mg/kg, 0.5 gram tablets, treated 4 or 6 weeks after infection, necropsy 4 days after treatment
# Procedure: Again, the general testing procedure was that of Example 1. This time 16 dogs to be treated were experimentally infected and divided into two groups along with 4 infected control dogs in each group. The 8 dogs of Group 1 were treated 4 weeks after infection, and the 8 dogs of Group 2 were treated 6 weeks after infection, each at a dose of 200 mg/kg, using the 0.5 gram active ingredient tablets. 100% efficacy of the single dose treatment was found upon necropsy 4 days after treatment.
# Moniezia spp. = experiment: Treatment of Moniezia expansa in lambs (natural infestation); format: in vivo
# Procedure: (§2) Twenty lambs spontaneously infested by nematodes and cestodes were removed from a flock near Limoges (Haute-Vienne), France. They were housed in sheepfold --concentrate food, 1 kg per day per lamb, water and hay, ad libitum, were provided.
# (§3) The animals were assigned to treatment groups as indicated below:
# (§4) Seven lambs (Group 1, black) were given a single 100 mg/kg of body weight dose of the test material dissolved in a mixture of water and gum syrup (0.5 ml/kg of body weight) orally administered with a syringe.
# (§5) Seven lambs (Group 2, red) were given a single 50 mg/kg of body weight dose of the test material dissolved in a mixture of water and gum syrup (0.5 ml/kg of body weight) orally administered with a syringe.
# (§6) Six lambs (Group 3, blue) were given 0.5 ml/kg of body weight of a mixture of water and gum syrup orally administered with a syringe.
# (§7) 48 hours after treatment, necroscopies were performed.
# (§8) Scolices and gastro intestinal worm counts were carried out.
# [1] = tested on: Gastro-Intestinal Nematodes; experiment: Gastro-intestinal nematodes in lambs, worm counts; format: in vivo
# Procedure: as §2
# To confirm the infestation, faeces were taken from the rectum 48 hours prior to treatment and the number of eggs counted.
# as §3, §4, §5, §6, §7, §8
# whipworms = experiment: Treatment of nematodes in dogs: whipworms; format: in vivo; conditions: 100 mg/kg single dose, tablets containing 0.5 g, 3 dogs, necropsy 4 days after treatment
# Excerpt: (§9) The general testing procedure was that of Example 1. […] 100% efficacy against whipworms and 65% efficacy against hookworms were found upon necropsy 4 days after treatment using a single dose treatment.
# hookworms = experiment: Treatment of nematodes in dogs: hookworms; format: in vivo
# Excerpt: as §9
# [2] = Toxicity study in cats, single doses; format: in vivo
# Excerpt: (§10) Additional toxicity studies have been carried out in cats and dogs, which can be summarized as follows.
# The lethal dose of the test material in cats is greater than 10 g/kg.
# [3] = Toxicity study in dogs, single doses; format: in vivo
# Excerpt: as §10
# The lethal dose of the test material in dogs is greater than 10 g/kg.
# [4] = Side effects of treatment in Taenia pisiformis-infected dogs; format: in vivo, dogs (beagles); conditions: 75 mg/kg, 15 dogs
# Procedure: as §1
# [5] = Necropsy observations in treated lambs; format: in vivo; conditions: 48 hours after treatment
# Procedure: as §4, §5, §7
# [6] = single dose 100 mg/kg, 7 naturally infested lambs
structure (smiles),measurement,setting,value
"CC(=O)Oc1ccccc1C(=O)Nc1ncc([N+](=O)[O-])s1 [PH 5776, 2-(2'-acetoxy)-benzamido-5-nitro-thiazole]",Effectiveness against Taenia pisiformis,Taenia pisiformis; 75 mg of body weight,effective
same,Tapeworm material in faeces after the 14th hour,Taenia pisiformis; 75 mg/kg,not found
same,Tapeworms at necropsy (in words),"Taenia pisiformis; 75 mg/kg, 15 dogs, day 19 (Group 1) and day 4 (Group 2)",tapeworms were not found in any of the 15 dogs; also recorded: None of the dogs on study were positive for tapeworms
same,Number of dogs showing tapeworm material in the faeces,"Taenia pisiformis; Group 1 (7 dogs), 75 mg/kg",5 dogs
same,Tapeworm Material In Faeces (8th-14th Hour),"Taenia pisiformis; Group 1, 75 mg/kg, 6 weeks after infection",yes and no
same,Number of dogs showing tapeworm material in the faeces,"Taenia pisiformis; Group 2 (8 dogs), 75 mg/kg",6 dogs
same,Tapeworm Material In Faeces (8th-14th Hour),"Taenia pisiformis; Group 2, 75 mg/kg, 8 weeks after infection",yes and no
same,Number of dogs showing tapeworm material in the faeces,"Taenia pisiformis; Groups 1 and 2, out of 15 dogs, 75 mg/kg",11 dogs
same,Effectiveness of treatment,Dypilidium caninum,100%
same,Efficacy of the single dose treatment,Echinococus granulosus,100%
same,Efficacy against Moniezia spp. (in words),Moniezia spp.; 50 mg/kg,the efficacy is decreasing
same,Number of lambs negative after treatment,Moniezia spp.; 50 mg/kg,3 lambs
same,Number of lambs still infested with the cestoda,"Moniezia spp.; Group 2 (red), 50 mg/kg, 48 hours after treatment",3 lambs
same,Activity against Moniezia spp.,Moniezia spp.; [6],~100%
same,Activity against Moniezia spp. (in words),Moniezia spp.; [6],very active
same,"After Treatment At Necroscopies: Number Of Worms, Large Intestine","[1]; Group 1, 100 mg/kg",0
same,Effect on round worms / gastro-intestinal nematodes (in words),"[1]; lambs, 48 hours after treatment, 50 and 100 mg/kg",no toxic effect on any of the present round worms; also recorded: does not reveal any efficacy; also recorded: no activity
same,Efficacy against whipworms,whipworms,100%
same,Efficacy against hookworms,"hookworms; 100 mg/kg single dose, tablets containing 0.5 g, 3 dogs, necropsy 4 days after treatment",65%
same,Efficacy against hookworms,hookworms; 3 repeated doses of 100 mg/kg at an interval of 7 days,93%
same,Lethal dose,[2],greater than 10 g/kg
same,Necropsy findings,[2],slight yellow discoloration of the renal cortex
same,Signs of intoxication (central nervous system),[2]; doses of 5 and 10 g/kg,a suggestion of central nervous system depression
same,Signs of intoxication,[2]; single doses of 1 g/kg,Minimal signs (slight diarrhea) of intoxication
same,Route of excretion,[2]; suggested from necropsy findings,urine as a route of excretion
same,Lethal dose,[3],greater than 10 g/kg
same,Signs of intoxication,"[3]; single doses of 1, 5 or 10 g/kg",Minimal signs of intoxication related to gastro-intestinal distress
same,Undesirable side effects of the treatment,[4],not found in any of the 15 dogs
same,Changes in the internal organs and coloration of the tissues,[5]; 100 or 50 mg/kg,No changes in the internal organs and no coloration of the tissues were observed
same,Coloration of small intestine wall tissues,[5]; treated groups (100 or 50 mg/kg),slightly colored yellow

# Source: patent US4315018A, “Specific parasiticidal use of 2-benzamido-5-nitro-thiazole derivatives” (priority 1978, dated 1982)
